Laboratory results reported in US11584743B2, “Indole derivatives as estrogen receptor degraders” (Arvinas Operations, Inc., priority 2016, dated 2023).

Experiment: Single dose subcutaneous pharmacokinetics in CD-1 mice
Assay type: in vivo
Conditions: mouse, plasma, sc, 10 mg/kg single dose
Description: Single Dose Subcutaneous Pharmacokinetics in CD-1 Mice The subcutaneous bioavailability was determined in the following study: three CD-1 mice were dosed by subcutaneous injection (10 mg/kg) and plasma was collected at the following hourly time points (0.25, 0.5, 1, 2, 4, 8, and 24 h). Plasma compound concentations were determined by HPLC.

bioavailability (read-out: F % (subcutaneous bioavailability)): 100%
AUC(0-inf): 8280 ng·h/mL
Cmax: 687 ng/mL
Tmax: 4 h
half-life: 12 h
SMILES: Cc1ncsc1-c1ccc([C@H](C)NC(=O)[C@@H]2C[C@@H](O)CN2C(=O)[C@@H](NC(=O)COCCOCCOCCOc2ccc(Cn3c(-c4ccc(O)cc4)c(C)c4cc(O)ccc43)cc2)C(C)(C)C)cc1 [Example #5, (2S,4R)-4-hydroxy-1-[(2S)-2-[1-(4-[[5-hydroxy-2-(4-hydroxyphenyl)-3-methyl-1H-indol-1-yl]methyl]phenyl)-1,4,7,10-tetraoxadodecan-12-amido]-3,3-dimethylbutanoyl]-N-[(1S)-1-[4-(4-methyl-1,3-thiazol-5-yl)phenyl]ethyl]pyrrolidine-2-carboxamide]
